Results reported in publication PMC3626118 (Combinatorial chemistry & high throughput screening, 2009).

Columns and labels:
[1] = physchem; details: pH 8, aqueous buffer, kinetic from dmso stock
[2] = molecular target: T1, RNA triphosphatase TbCet1 (Trypanosoma brucei brucei, UniProt Q582T2); test: Transcreener ADP fluorescence polarization assay, dose-response; type: biochemical
T1 sequence (Q582T2 1-253): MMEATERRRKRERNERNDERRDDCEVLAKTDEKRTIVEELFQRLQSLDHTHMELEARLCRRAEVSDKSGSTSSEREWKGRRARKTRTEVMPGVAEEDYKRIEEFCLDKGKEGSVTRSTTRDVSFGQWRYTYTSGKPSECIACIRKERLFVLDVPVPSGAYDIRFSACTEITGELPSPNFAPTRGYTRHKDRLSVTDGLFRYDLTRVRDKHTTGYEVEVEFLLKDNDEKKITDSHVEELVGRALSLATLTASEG

[3] = Solubility by laser nephelometry in assay conditions; details: for Sol. (solubility threshold): laser nephelometry, assay conditions

IC50 [2] [nM] | SMILES | other results
8800 | O=c1c(O)cc([C@H]2Oc3cc(O)cc(O)c3C[C@H]2O)cc2c([C@H]3Oc4cc(O)cc(O)c4C[C@H]3O)cc(O)c(O)c12 [SKI 209343, Theaflavin] | 
65 | O=c1c(-c2cc(O)c(O)c(O)c2)coc2cc(O)c(O)c(O)c12 [SKI 209392, Irigenol] | 
10 | O=C(O[C@@H]1Cc2c(O)cc(O)cc2O[C@@H]1c1cc(O)c(O)c(O)c1-c1c([C@H]2Oc3cc(O)cc(O)c3C[C@H]2O)cc(O)c(O)c1O)c1cc(O)c(O)c(O)c1 [SKI 209412, 2′,2′-Bisepigallocatechin monogallate] | 
440 | O=c1c(O)cccc2c([C@H]3Oc4cc(O)cc(O)c4C[C@H]3O)cc(O)c(O)c12 [SKI 209509, Theaflavanin] | 
3900 | COc1cc(O)c2c(=O)c(O)c(-c3ccc(O)c(O)c3)oc2c1 [SKI 209674, Rhamnetin] | 
35 | O=c1oc2c(O)c(O)cc3c(=O)oc4c(O)c(O)cc1c4c23 [SKI 210886, Ellagic acid] | 

Second part, the compound before the results:

SMILES | IC50 [2] [nM] | other results
Oc1cc2c(cc1O)C1c3ccc(O)c(O)c3OCC1(O)C2 (stereo not shown) [SKI 209325, Haematoxylin] | 1700 | solubility [1]: > 100 µM
O=C(Oc1cc(O)cc2c1C[C@@H](OC(=O)c1cc(O)c(O)c(O)c1)[C@@H](c1cc(O)c(O)c(O)c1)O2)c1cc(O)c(O)c(O)c1 [SKI 209415, Epigallocatechin-3,5-digallate] |  | Sol. (solubility threshold) [3]: > 100 µM
Oc1cc(O)c2c(c1)O[C@H](c1cc(O)c(O)c(O)c1)[C@H](O)C2 [SKI 209444, Epigallocatechin] | 4400 | 
O=C(O[C@@H]1Cc2c(O)cc(O)cc2O[C@@H]1c1ccc(O)c(O)c1)c1cc(O)c(O)c(O)c1 [SKI 209457, Epicatechin monogallate] |  | Sol. (solubility threshold) [3]: > 100 µM
O=C(O[C@@H]1Cc2c(O)cc(O)cc2O[C@@H]1c1cc(O)c(O)c(O)c1)c1cc(O)c(O)c(O)c1 [SKI 209458, Epigallocatechin-3-monogallate] |  | Sol. (solubility threshold) [3]: > 100 µM
O=c1c(O)cccc2cc(O)c(O)c(O)c12 [SKI 209468, Purpurogallin] | 210 | 
NC[C@H](O)c1ccc(O)c(O)c1 [SKI 210170, Norepinephrine, reference compound] | 720 | solubility [1]: > 100 µM
O=c1c(O)c(-c2ccc(O)c(O)c2)oc2cc(O)ccc12 [SKI 210887, Fisetin] | 2100 | 
O=C1C=C2CC3(O)COc4c(ccc(O)c4O)C3=C2C=C1O (stereo not shown) [SKI 210893, Hematein] | 200 | 
O=c1c(O)c(-c2cc(O)c(O)c(O)c2)oc2cc(O)cc(O)c12 [SKI 211290, Myricetin] | 7200 | solubility ([3]; pH 8, aqueous buffer, kinetic from dmso stock): > 100 µM
N[C@@H](Cc1ccc(O)c(O)c1)C(=O)O [SKI 211511, Levodopa, reference compound] | 30 | solubility [1]: > 100 µM
Nc1cccc2c1C(=O)c1cccc(N)c1C2=O [SKI 217754, Anthraquinone, 1,5-diamino] |  | Sol. (solubility threshold) [3]: > 100 µM
